Laboratory results taken from US20240360194A1, “New Peptides as Potent and Selective GIP Receptor Agonists” (Sanofi, priority 2021, published 2024).
Numbered stars: 1 amine (or outer) side, 2 acyl side, 3 side chain; on linkers, the order of the positions; unused ones are H or OH. Square brackets hold non-standard residues; d marks the D form. Side chains are listed from the residue outwards. Peptide text beside a SMILES is read from it. * marks the point of attachment. C18 diacid = O=C(O)CCCCCCCCCCCCCCCCC(=O)*; γGlu = O=C(O)[C@H](CCC(=O)[*:2])N[*:1]; AEEA = NCCOCCOCC(=O)O; Aib = CC(C)(N)C(=O)O

Experiments:
[1] = ThT assay for the assessment of physical stability (fibrillation); assay type: physicochemical; conditions: ThT buffer system A: 100 mM phosphate buffer pH 7.4; 3 mg/ml, 37° C., shaking
Description: Low physical stability of a peptide solution may lead to amyloid fibril formation, which is observed as well-ordered, thread-like macromolecular structures in the sample, which eventually may lead to gel formation. Thioflavin T (ThT) is widely used to visualize and quantify the presence of misfolded protein aggregates [Biancalana et al., Biochim. Biophys. Acta 2010, 1804(7), 1405]. […] Enzymol. 1999, 309, 274]. The time course for fibril formation often follows the characteristic shape of a sigmoidal curve and can be separated into three regions: a lag phase, a fast growth phase, and a plateau phase. The typical fibril formation process starts with the lag phase in which the amount of partially folded peptide turned into fibrils is not significant enough to be detected. The lag-time corresponds to the time the critical mass of the nucleus is built. Afterwards, a drastic elongation phase follows, and fibril concentration increases rapidly. Investigations were carried out to determine fibrillation tendencies under stress conditions by shaking at 37° C. within Fluoroskan Ascent FL or Fluoroskan Ascent. For the tests in Fluoroskan Ascent (FL), 200 μl sample were placed into a 96-well mictrotiter plate PS, flat bottom, Greiner Fluotrac No. 655076. Plates were sealed with Scotch Tape (Qiagen). Samples were stressed by continuous cycles of 10 sec shaking at 960 rpm and 50 sec rest period at 37° C. The kinetic was monitored by measuring fluorescence intensity every 20 min. Peptides were diluted in a buffer system to a final concentration of 3 mg/ml. 20 μl of a 10.1 mM ThT solution in H2O were added to 2 ml of peptide solution to receive a final concentration of 100 μM ThT. For each sample eight replicates were tested. • ThT buffer system A) 100 mM phosphate buffer pH 7.4 • ThT buffer system B) 100 mM phosphate buffer pH 7.4, 2.7 mg/ml m-cresol Lag time in hours (h) in Thioflavin T (ThT) assay of peptide samples was determined in ThT buffer system A as described in Methods.

human GIP receptor = molecular target: T1, human GIP receptor (Homo sapiens, UniProt P48546); test: In vitro cellular cAMP assay for GIP receptor efficacy (human adipocytes); assay type: cell-based; conditions: for EC50: read-out: hGIPR EC50; for Emax: read-out: hGIPR Emax
T1 construct: human adipocytes endogenously expressing the human GIP receptor; host or cells: human preadipocytes (Lonza) differentiated to adipocytes
T1 sequence (P48546 22-466): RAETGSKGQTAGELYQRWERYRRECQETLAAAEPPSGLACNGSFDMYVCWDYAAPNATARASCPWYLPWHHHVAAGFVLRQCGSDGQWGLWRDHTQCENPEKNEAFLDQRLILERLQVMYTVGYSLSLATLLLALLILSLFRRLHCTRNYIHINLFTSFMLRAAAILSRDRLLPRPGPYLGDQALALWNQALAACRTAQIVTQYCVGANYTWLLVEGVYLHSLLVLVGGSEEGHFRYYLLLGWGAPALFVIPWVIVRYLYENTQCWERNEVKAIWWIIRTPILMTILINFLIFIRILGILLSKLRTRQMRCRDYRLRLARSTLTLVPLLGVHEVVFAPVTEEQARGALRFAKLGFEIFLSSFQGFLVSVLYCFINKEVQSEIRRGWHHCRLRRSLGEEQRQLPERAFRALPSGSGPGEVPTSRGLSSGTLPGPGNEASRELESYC
In short: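 cAMP is read by HTRF (665/620 nm ratio, 1 h after reagents in lysis buffer) following 30 min compound exposure at room temperature. Cells are human preadipocyte-derived adipocytes, differentiated 6 days with insulin, dexamethasone, IBMX (200 μM), PPARγ agonist and L-thyroxine, seeded 5000 per well.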

[2] = molecular target: T2, human GIP receptor (hGIPR) (Homo sapiens, UniProt P48546); test: Binding assay, displacement of [125I]GIP from HEK-293 membranes over-expressing GIPR (SPA); conditions: [125I]GIP displacement
T2 sequence (P48546 22-466): T1 sequence (P48546 22-466)
In short: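 Membranes from HEK-293 cells over-expressing human GIPR or GLP-1R, isolated by homogenising, sonicating and ultracentrifuging at 100000×g into HEPES/EDTA/NaCl buffer with protease inhibitors, were used for binding.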

| Structure (SMILES) | Increase in FI [1] | Lag time before increase [1] | EC50 (human GIP receptor) | Emax (human GIP receptor) | IC50 [2] |
| --- | --- | --- | --- | --- | --- |
| CC[C@H](C)[C@H](NC(=O)[C@H](CCCNC(=N)N)NC(=O)[C@H](CC(=O)O)NC(=O)[C@H](CC(C)C)NC(=O)C(C)(C)NC(=O)[C@@H](NC(=O)[C@H](CO)NC(=O)[C@H](CC(C)C)NC(=O)[C@H](CC(=O)O)NC(=O)[C@H](CO)NC(=O)[C@@H](NC(=O)[C@H](Cc1ccccc1)NC(=O)[C@@H](NC(=O)CNC(=O)[C@H](CCC(=O)O)NC(=O)C(C)(C)NC(=O)[C@@H](N)Cc1ccc(O)cc1)[C@@H](C)O)[C@@H](C)CC)[C@@H](C)CC)C(=O)N[C@@H](CCCCNC(=O)COCCOCCNC(=O)COCCOCCNC(=O)CC[C@H](NC(=O)CCCCCCCCCCCCCCCCC(=O)O)C(=O)O)C(=O)N[C@@H](CCC(N)=O)C(=O)NC(C)(C)C(=O)N[C@@H](CCC(=O)O)C(=O)N[C@@H](Cc1ccccc1)C(=O)N[C@H](C(=O)N[C@@H](CCC(=O)O)C(=O)N[C@@H](Cc1c[nH]c2ccccc12)C(=O)N[C@@H](CC(C)C)C(=O)N[C@@H](CC(C)C)C(=O)N[C@@H](C)C(=O)N[C@@H](CCC(N)=O)C(=O)NCC(=O)N1CCC[C@H]1C(=O)N[C@@H](CO)C(=O)N[C@@H](CO)C(=O)NCC(=O)N[C@@H](C)C(=O)N1CCC[C@H]1C(=O)N1CCC[C@H]1C(=O)N1CCC[C@H]1C(=O)N[C@@H](CO)C(N)=O)[C@@H](C)CC [SEQ ID NO: 37, H2N-Y-Aib-E-G-T-F-I-S-D-L-S-I-Aib-L-D-R-I-K[{AEEA}2-gGlu-C18OH]-Q-Aib-E-F-I-E-W-L-L-A-Q-G-P-S-S-G-A-P-P-P-S-NH2] (H-Y[Aib]EGTFISDLSI[Aib]LDRIK([AEEA-AEEA-γGlu-C18 diacid])Q[Aib]EFIEWLLAQGPSSGAPPPS-NH2) | no | >45 h | 0.5 nM | 113% | 0.1 nM |
| CC[C@H](C)[C@H](NC(=O)[C@H](CCC(=O)O)NC(=O)[C@H](CCC(=O)O)NC(=O)[C@H](CCCCNC(=O)COCCOCCNC(=O)COCCOCCNC(=O)CC[C@H](NC(=O)CCCCCCCCCCCCCCCCC(=O)O)C(=O)O)NC(=O)C(C)(C)NC(=O)[C@@H](NC(=O)[C@H](CO)NC(=O)[C@H](CC(C)C)NC(=O)[C@H](CC(=O)O)NC(=O)[C@H](CO)NC(=O)[C@@H](NC(=O)[C@H](Cc1ccccc1)NC(=O)[C@@H](NC(=O)CNC(=O)[C@H](CCC(=O)O)NC(=O)C(C)(C)NC(=O)[C@@H](N)Cc1ccc(O)cc1)[C@@H](C)O)[C@@H](C)CC)[C@@H](C)CC)C(=O)N[C@@H](Cc1c[nH]cn1)C(=O)N[C@@H](CCC(N)=O)C(=O)NC(C)(C)C(=O)N[C@@H](CCC(=O)O)C(=O)N[C@@H](Cc1ccccc1)C(=O)N[C@H](C(=O)N[C@@H](CCC(=O)O)C(=O)N[C@@H](Cc1c[nH]c2ccccc12)C(=O)N[C@@H](CC(C)C)C(=O)N[C@@H](CC(C)C)C(=O)N[C@@H](C)C(=O)N[C@@H](CCC(N)=O)C(=O)NCC(=O)N1CCC[C@H]1C(=O)N[C@@H](CO)C(=O)N[C@@H](CO)C(=O)NCC(=O)N[C@@H](C)C(=O)N1CCC[C@H]1C(=O)N1CCC[C@H]1C(=O)N1CCC[C@H]1C(=O)N[C@@H](CO)C(N)=O)[C@@H](C)CC [SEQ ID NO: 19, H2N-Y-Aib-E-G-T-F-I-S-D-L-S-I-Aib-K[{AEEA}2-gGlu-C18OH]-E-E-I-H-Q-Aib-E-F-I-E-W-L-L-A-Q-G-P-S-S-G-A-P-P-P-S-NH2] (H-Y[Aib]EGTFISDLSI[Aib]K([AEEA-AEEA-γGlu-C18 diacid])EEIHQ[Aib]EFIEWLLAQGPSSGAPPPS-NH2) | no | >45 h | – | 94% | – |
| CC[C@H](C)[C@H](NC(=O)[C@H](Cc1ccccc1)NC(=O)[C@H](CCC(=O)O)NC(=O)[C@H](CCC(=O)O)NC(=O)[C@H](CCC(N)=O)NC(=O)[C@H](Cc1c[nH]cn1)NC(=O)[C@@H](NC(=O)[C@H](CCCNC(=N)N)NC(=O)[C@H](CC(=O)O)NC(=O)[C@H](CCCCNC(=O)COCCOCCNC(=O)COCCOCCNC(=O)CC[C@H](NC(=O)CCCCCCCCCCCCCCCCC(=O)O)C(=O)O)NC(=O)C(C)(C)NC(=O)[C@@H](NC(=O)[C@H](CO)NC(=O)[C@H](CC(C)C)NC(=O)[C@H](CC(=O)O)NC(=O)[C@H](CO)NC(=O)[C@@H](NC(=O)[C@H](Cc1ccccc1)NC(=O)[C@@H](NC(=O)CNC(=O)[C@H](CCC(=O)O)NC(=O)C(C)(C)NC(=O)[C@@H](N)Cc1ccc(O)cc1)[C@@H](C)O)[C@@H](C)CC)[C@@H](C)CC)[C@@H](C)CC)C(=O)N[C@@H](CCC(N)=O)C(=O)N[C@@H](Cc1c[nH]c2ccccc12)C(=O)N[C@@H](CC(C)C)C(=O)N[C@@H](CC(C)C)C(=O)N[C@@H](C)C(=O)N[C@@H](CCC(N)=O)C(=O)NCC(=O)N1CCC[C@H]1C(=O)N[C@@H](CO)C(=O)N[C@@H](CO)C(=O)NCC(=O)N[C@@H](C)C(=O)N1CCC[C@H]1C(=O)N1CCC[C@H]1C(=O)N1CCC[C@H]1C(=O)N[C@@H](CO)C(N)=O [SEQ ID NO: 35, H2N-Y-Aib-E-G-T-F-I-S-D-L-S-I-Aib-K[{AEEA}2-gGlu-C18OH]-DRIHQEEFIQWLLAQGPSSGAPPPS-NH2] (H-Y[Aib]EGTFISDLSI[Aib]K([AEEA-AEEA-γGlu-C18 diacid])DRIHQEEFIQWLLAQGPSSGAPPPS-NH2) | no | >45 h | 1.3 nM | 120% | 0.6 nM |
| CC[C@H](C)[C@H](NC(=O)[C@H](CCCNC(=N)N)NC(=O)[C@H](CC(=O)O)NC(=O)[C@H](CCCCNC(=O)COCCOCCNC(=O)COCCOCCNC(=O)CC[C@H](NC(=O)CCCCCCCCCCCCCCCCC(=O)O)C(=O)O)NC(=O)C(C)(C)NC(=O)[C@@H](NC(=O)[C@H](CO)NC(=O)[C@H](CC(C)C)NC(=O)[C@H](CC(=O)O)NC(=O)[C@H](CO)NC(=O)[C@@H](NC(=O)[C@@](C)(CC)NC(=O)[C@@H](NC(=O)CNC(=O)[C@H](CCC(=O)O)NC(=O)C(C)(C)NC(=O)[C@@H](N)Cc1ccc(O)cc1)[C@@H](C)O)[C@@H](C)CC)[C@@H](C)CC)C(=O)N[C@@H](Cc1c[nH]cn1)C(=O)N[C@@H](CCC(N)=O)C(=O)NC(C)(C)C(=O)N[C@@H](CCC(=O)O)C(=O)N[C@@H](Cc1ccccc1)C(=O)N[C@H](C(=O)N[C@@H](CCC(=O)O)C(=O)N[C@@H](Cc1c[nH]c2ccccc12)C(=O)N[C@@H](CC(C)C)C(=O)N[C@@H](CC(C)C)C(=O)N[C@@H](C)C(=O)N[C@@H](CCC(N)=O)C(=O)N[C@@H](CCCNC(=N)N)C(=O)NCC(N)=O)[C@@H](C)CC [SEQ ID NO: 16, H2N-Y-Aib-E-G-T-Iva-I-S-D-L-S-I-Aib-K[{AEEA}2-gGlu-C18OH]-D-R-I-H-Q-Aib-E-F-I-E-W-L-L-A-Q-R-G-NH2] | no | >45 h | 0.6 nM | 91% | 0.1 nM |
